# Earlier results in patent publication US20080160503A1, “RAPID ANALYSIS OF ORAL BIOAVAILABILITY” (priority 2006, published 2008).
# Details: background statement; for bioavailability through the oral route: no data shown; for first-pass metabolism: oral administration, gut wall and liver
Compound,bioavailability through the oral route,first-pass metabolism
NC[C@H](O)c1ccc(O)c(O)c1 [norepinephrine],virtually zero,
CC(C)NCC(O)c1ccc(O)c(O)c1 (centres unmarked) [isoproterenol],virtually zero,extensive
C[C@]12CC[C@H]3[C@@H](CCC4=CC(=O)CC[C@@]43C)[C@@H]1CC[C@@H]2O [testosterone],virtually zero,extensive
